Measured values reported in ChEMBL document CHEMBL5357005, “Discovery and Heterologous Production of Tetrapetalones Provide Insights into the Formation of the Tetracyclic System” (J Nat Prod, 2024).
Active and inactive are the calls of the source.

Columns and labels:
Staphylococcus aureus = assay: Antimicrobial activity against Staphylococcus aureus ATCC 25923 assessed as reduction in microbial growth measured for 24 hrs by paper disc diffusion method; format: functional, organism-based
Pseudomonas aeruginosa = assay: Antimicrobial activity against Pseudomonas aeruginosa PA01 assessed as reduction in microbial growth measured for 24 hrs by paper disc diffusion method; format: functional, organism-based
Salmonella typhimurium = assay: Antimicrobial activity against Salmonella enterica subsp. enterica serovar Typhimurium assessed as reduction in microbial growth measured for 24 hrs by paper disc diffusion method; format: functional, organism-based
Candida albicans = assay: Antifungal activity against Candida albicans 5314 assessed as reduction in microbial growth measured for 48 hrs by paper disc diffusion method; format: functional, organism-based
SW480 = assay: Cytotoxicity against human SW480 cells assessed as reduction in cell viability at 50 uM by sulfonyl rhodamine B colorimetry analysis; format: functional, cell-based
HCT-116 = assay: Cytotoxicity against human HCT-116 cells assessed as reduction in cell viability at 50 uM by sulfonyl rhodamine B colorimetry analysis; format: functional, cell-based

Measured: Activity

CC1=C[C@@]2(C)C(O)=C(C)C(=O)N2C2=CC(=O)C=C3[C@@H](O[C@H]4O[C@H](C)[C@@H](O)[C@H](O)[C@@H]4O)[C@H](C)[C@@H]1[C@]32O
inactive: Staphylococcus aureus | Pseudomonas aeruginosa | Salmonella typhimurium | Candida albicans | SW480 | HCT-116

CC[C@@]12C=C(C)[C@@H]3[C@@H](C)[C@H](O[C@H]4O[C@H](C)[C@@H](O)[C@H](O)[C@@H]4O)C4=CC(=O)C=C(N1C(=O)C(C)=C2O)[C@@]43O
inactive: Staphylococcus aureus | Pseudomonas aeruginosa | Salmonella typhimurium | Candida albicans | SW480 | HCT-116

CC1=C[C@@]2(C)C(O)=C(C)C(=O)N2C2=CC(=O)C=C3[C@@H](O[C@@H]4CC[C@H](O)[C@H](C)O4)[C@H](C)[C@@H]1[C@]32O
inactive: Staphylococcus aureus | Pseudomonas aeruginosa | Salmonella typhimurium | Candida albicans | SW480 | HCT-116

CC1=C[C@@]2(CO)C(O)=C(C)C(=O)N2C2=CC(=O)C=C3[C@@H](O[C@@H]4CC[C@H](O)[C@H](C)O4)[C@H](C)[C@@H]1[C@]32O
inactive: Staphylococcus aureus | Pseudomonas aeruginosa | Salmonella typhimurium | Candida albicans | SW480 | HCT-116

CC[C@@]12C=C(C)[C@@H]3[C@@H](C)[C@H](O)C4=CC(=O)C=C(N1C(=O)C(C)=C2O)[C@@]43O
inactive: Staphylococcus aureus | Pseudomonas aeruginosa | Salmonella typhimurium | Candida albicans | SW480 | HCT-116

CC1=C[C@H]2C(O)=C(C)C(=O)N2C2=CC(=O)C=C3[C@@H](O[C@@H]4CC[C@H](O)[C@H](C)O4)[C@H](C)[C@@H]1[C@]32O
inactive: Staphylococcus aureus | Pseudomonas aeruginosa | Salmonella typhimurium | Candida albicans | SW480 | HCT-116

CC[C@@]12C=C(C)[C@@H]3[C@@H](C)[C@H](O[C@@H]4CC[C@H](O)[C@H](C)O4)C4=CC(=O)C=C(N1C(=O)C(C)=C2O)[C@@]43O
inactive: Staphylococcus aureus | Pseudomonas aeruginosa | Salmonella typhimurium | Candida albicans | SW480 | HCT-116

CC1=C[C@@]2(C)C(O)=C(C)C(=O)N2C2=CC(=O)C=C3[C@@H](O)[C@H](C)[C@@H]1[C@]32O
inactive: Staphylococcus aureus | Pseudomonas aeruginosa | Salmonella typhimurium | Candida albicans | SW480 | HCT-116
